Measured values as given in US20240010641A1, “N-Linked Glycosylation Inhibitors and Methods of Using Same” (YALE UNIVERSITY, priority 2020, published 2024).

Test system: N-linked glycosylation (OST) in CHO-ER-LucT cells
Assay: CHO-ER-LucT luminescence assay for inhibition of N-linked glycosylation
Type: cell-based
Conditions: for Emax: 24 h, [compound's fold change-1.0 (DMSO)]/[NGI-1 fold change-1.0 (DMSO)]*100, read-out: Max activity (% NGI-1); for AC50: CHO-ER-LucT cells, 24 hrs exposure, seven-point dose dilution, luminescence
Protocol: The CHO-ER-LucT cells have been previously described (Contessa et al., 2010, Clinical Cancer Research, 16(12):3205-14) and are used for testing analog IC50 for inhibition of N-linked glycosylation in 96 or 384 well plate format. In these cells induction of luminescence is dependent on inhibition of glycosylation (and OST inhibition), and is determined after 24 hrs of exposure to the analog following the addition of luciferin substrate. The luminescent signal is then quantified using standard plate readers that detect luminescence (e.g., Biotek synergy). Experiments are performed over a seven-point dose dilution to generate dose response data and to identify IC50 values and maximal activity compared to controls. Data is transformed to log 10 values to generate a sigmoidal shaped dose response curve and fitted using nonlinear regression (curve fit) in GraphPad Prism7.
All HL compounds were tested in CHO-ER-LucT cells. IC50 (AC50) was estimated in following method: Concentration X is converted to logarithm (log10) to generate sigmoidal shape curve and dose response curve is generated using Nonlinear regression (curve fit) in Prism. EC50 (AC50) is calculated using log(agonist) vs response-(three parameters)] which uses standard Hill slope (=1).
Max activity: [compound's fold change−1.0 (DMSO)]/[NGI−1 fold change−1.0 (DMSO)]*100(%) (Eq. 1)

Cc1ccc(NC(=O)c2cc(S(=O)(=O)N(C)C)cnc2N2CCCC2)cc1
Emax: 14.9% | AC50: 94500 nM

Cc1cnc(NC(=O)c2cc(S(=O)(=O)N(C)C)cnc2N2CCCC2)s1
Emax: 50.4% | AC50: 70400 nM

Cc1cnc(NC(=O)c2cc(S(=O)(=O)N(C)C)cc(F)c2N2CCCC2)s1
Emax: 114% | AC50: 36900 nM

CCc1cnc(NC(=O)c2cc(S(=O)(=O)N(C)C)cc(F)c2N2CCCC2)s1
Emax: 97.3% | AC50: 3760 nM

Cc1nc(NC(=O)c2cc(S(=O)(=O)N(C)C)ccc2N(C)C)sc1C
Emax: 33.9% | AC50: 27900 nM

CCc1cnc(NC(=O)c2cc(S(=O)(=O)N(C)C)ccc2N(C)C)s1
Emax: 46.1% | AC50: 6850 nM

Cc1nc(NC(=O)c2cc(S(=O)(=O)N(C)C)ccc2N(C)C2CC2)sc1C
Emax: 43.9% | AC50: 3440 nM

CCc1cnc(NC(=O)c2cc(S(=O)(=O)N(C)C)ccc2N(C)C2CC2)s1
Emax: 86.8% | AC50: 1190 nM

CN(c1ccc(S(=O)(=O)N(C)C)cc1C(=O)Nc1nc2c(s1)COCC2)C1CCCC1
Emax: 46.2% | AC50: 1020 nM

Cc1cnc(NC(=O)c2cc(S(=O)(=O)N(C)C)cnc2N(C)CC2CC2)s1
Emax: 48.3% | AC50: 3020 nM

CCc1cnc(NC(=O)c2cc(S(=O)(=O)N3CCOCC3)ccc2N(C)CC)s1
Emax: 130% | AC50: 620 nM

CCc1cnc(NC(=O)c2cc(S(=O)(=O)N3CCOCC3)ccc2N(C)C2CC2)s1
Emax: 129% | AC50: 2500 nM

CCc1cnc(NC(=O)c2cc(S(=O)(=O)CC3CC3)ccc2N(C)C2CCCC2)s1
Emax: 89.9% | AC50: 1530 nM

Cc1nc(NC(=O)c2cc(S(=O)(=O)CC3CC3)ccc2N(C)C2CCCC2)sc1C
Emax: 41% | AC50: 2430 nM

Cc1nc(NC(=O)c2cc(S(=O)(=O)N3CCOCC3)ccc2N(C)C2CC2)sc1C
Emax: 36.7% | AC50: 2530 nM

C=CCN(C)c1ccc(S(=O)(=O)N(C)C)cc1C(=O)Nc1ncc(CC)s1
Emax: 108% | AC50: 1100 nM

CCc1cnc(NC(=O)c2cc(S(=O)(=O)CC3CC3)ccc2N(C)CC2CC2)s1
Emax: 88.3% | AC50: 2590 nM

Cc1nc(NC(=O)c2cc(S(=O)(=O)N3CCN(C)CC3)ccc2N(C)CC2CC2)sc1C
Emax: 76.9% | AC50: 2200 nM

CN(CC1CC1)c1ccc(S(=O)(=O)N2CCOCC2)cc1C(=O)Nc1ncc(Cc2ccccc2)s1
Emax: 116% | AC50: 13000 nM

CCc1cnc(NC(=O)c2cc(S(=O)(=O)N(C)C)ccc2N(CC)CC)s1 [Comparator, reference compound]
Emax: 46.8% | AC50: 3360 nM

Cc1nc(NC(=O)c2cc(S(=O)(=O)N(C)C)ccc2N(C)C2CCCC2)sc1C [Example 1, 2-(cyclopentyl(methyl)amino)-5-(N,N-dimethylsulfamoyl)-N-(4,5-dimethylthiazol-2-yl)benzamide]
Emax: 81% | AC50: 376 nM

CCc1cnc(NC(=O)c2cc(S(=O)(=O)N(C)C)ccc2N(C)C2CCCC2)s1 [Example 2, 2-(cyclopentyl(methyl)amino)-5-(N,N-dimethylsulfamoyl)-N-(5-ethylthiazol-2-yl)benzamide]
Emax: 129% | AC50: 120 nM

CCc1cnc(NC(=O)c2cc(S(=O)(=O)N3CCOCC3)ccc2N(C)C(C)C)s1 [Example 5, N-(5-ethylthiazol-2-yl)-2-(isopropyl(methyl)amino)-5-(morpholinosulfonyl)benzamide]
Emax: 162% | AC50: 270 nM

CCc1cnc(NC(=O)c2cc(S(=O)(=O)N3CCOCC3)ccc2N(C)C2CCCCC2)s1 [Example 6, 2-(cyclohexyl(methyl)amino)-N-(5-ethylthiazol-2-yl)-5-(morpholinosulfonyl)benzamide]
Emax: 148% | AC50: 215 nM

CCc1cnc(NC(=O)c2cc(S(=O)(=O)N3CCOCC3)ccc2N(C)C2CCC2)s1 [Example 7, 2-(cyclobutyl(methyl)amino)-N-(5-ethylthiazol-2-yl)-5-(morpholinosulfonyl)benzamide]
Emax: 138% | AC50: 243 nM

C=CCN(C)c1ccc(S(=O)(=O)N2CCOCC2)cc1C(=O)Nc1ncc(CC)s1 [Example 8, 2-(allyl(methyl)amino)-N-(5-ethylthiazol-2-yl)-5-(morpholinosulfonyl)benzamide]
Emax: 102% | AC50: 446 nM

Cc1nc(NC(=O)c2cc(S(=O)(=O)N3CCOCC3)ccc2N(C)C2CCCC2)sc1C [Example 9, 2-(cyclopentyl(methyl)amino)-N-(4,5-dimethylthiazol-2-yl)-5-(morpholinosulfonyl)benzamide]
Emax: 83.5% | AC50: 165 nM

Cc1nc(NC(=O)c2cc(S(=O)(=O)N3CCOCC3)ccc2N(C)CC2CC2)sc1C [Example 10, 2-((cyclopropylmethyl)(methyl)amino)-N-(4,5-dimethylthiazol-2-yl)-5-(morpholinosulfonyl)benzamide]
Emax: 88.7% | AC50: 128 nM

CCc1cnc(NC(=O)c2cc(S(=O)(=O)N(C)C)ccc2N(C)C2CCCCC2)s1 [Example 11, 2-(cyclohexyl(methyl)amino)-5-(N,N-dimethylsulfamoyl)-N-(5-ethylthiazol-2-yl)benzamide]
Emax: 52.9% | AC50: 248 nM

CCc1cnc(NC(=O)c2cc(S(=O)(=O)N(C)C)ccc2N(C)CC2CC2)s1 [Example 12, 2-((cyclopropylmethyl)(methyl)amino)-5-(N,N-dimethylsulfamoyl)-N-(5-ethylthiazol-2-yl)benzamide]
Emax: 133% | AC50: 77 nM

CCc1cnc(NC(=O)c2cc(S(=O)(=O)N(C)C)ccc2N(C)CC)s1 [Example 13, 5-(N,N-dimethylsulfamoyl)-2-(ethyl(methyl)amino)-N-(5-ethylthiazol-2-yl)benzamide]
Emax: 114% | AC50: 294 nM

CCc1cnc(NC(=O)c2cc(S(=O)(=O)N(C)C)ccc2N(C)C(C)C)s1 [Example 14, 5-(N,N-dimethylsulfamoyl)-N-(5-ethylthiazol-2-yl)-2-(isopropyl(methyl)amino)benzamide]
Emax: 128% | AC50: 372 nM

CCc1cnc(NC(=O)c2cc(S(=O)(=O)N(C)C)ccc2N(C)C2CCC2)s1 [Example 15, 2-(cyclobutyl(methyl)amino)-5-(N,N-dimethylsulfamoyl)-N-(5-ethylthiazol-2-yl)benzamide]
Emax: 141% | AC50: 252 nM

CCc1cnc(NC(=O)c2cc(S(=O)(=O)N(C)C)ccc2N(C)CC2CCC2)s1 [Example 16, 2-((cyclobutylmethyl)(methyl)amino)-5-(N,N-dimethylsulfamoyl)-N-(5-ethylthiazol-2-yl)benzamide]
Emax: 82.2% | AC50: 744 nM

Cc1cnc(NC(=O)c2cc(S(=O)(=O)N(C)C)ccc2N(C)C2CCCC2)s1 [Example 17, 2-(cyclopentyl(methyl)amino)-5-(N,N-dimethylsulfamoyl)-N-(5-methylthiazol-2-yl)benzamide]
Emax: 102% | AC50: 361 nM

CCc1cnc(NC(=O)c2cc(S(=O)(=O)N(C)Cc3ccccc3)ccc2N(C)CC2CC2)s1 [Example 18, 5-(N-benzyl-N-methylsulfamoyl)-2-((cyclopropylmethyl)(methyl)amino)-N-(5-ethylthiazol-2-yl)benzamide]
Emax: 71.2% | AC50: 266 nM

Cc1sc(NC(=O)c2cc(S(=O)(=O)N3CCOCC3)ccc2N(C)CC2CC2)nc1-c1ccccc1 [Example 19, 2-((cyclopropylmethyl)(methyl)amino)-N-(5-methyl-4-phenylthiazol-2-yl)-5-(morpholinosulfonyl)benzamide]
Emax: 66.2% | AC50: 563 nM

CCc1csc(NC(=O)c2cc(S(=O)(=O)N3CCOCC3)ccc2N(C)CC2CC2)n1 [Example 20, 2-((cyclopropylmethyl)(methyl)amino)-N-(4-ethylthiazol-2-yl)-5-(morpholinosulfonyl)benzamide]
Emax: 94.2% | AC50: 548 nM

Cc1nc(NC(=O)c2cc(S(=O)(=O)N(C)C)cnc2N(C)C2CCCC2)sc1C [Example 21, 2-(cyclopentyl(methyl)amino)-5-(N,N-dimethylsulfamoyl)-N-(4,5-dimethylthiazol-2-yl)nicotinamide]
Emax: 101% | AC50: 970 nM

CCc1cnc(NC(=O)c2cc(S(=O)(=O)N(C)C)cnc2N(C)CC2CC2)s1 [Example 22, 2-((cyclopropylmethyl)(methyl)amino)-5-(N,N-dimethylsulfamoyl)-N-(5-ethylthiazol-2-yl)nicotinamide]
Emax: 126% | AC50: 572 nM

Cc1nc(NC(=O)c2cc(S(=O)(=O)N(C)C)cnc2N(C)CC2CC2)sc1C [Example 23, 2-((cyclopropylmethyl)(methyl)amino)-5-(N,N-dimethylsulfamoyl)-N-(4,5-dimethylthiazol-2-yl)nicotinamide]
Emax: 59% | AC50: 863 nM

CN(CC1CC1)c1ncc(S(=O)(=O)N(C)C)cc1C(=O)Nc1nc2c(s1)COCC2 [Example 24, 2-((cyclopropylmethyl)(methyl)amino)-N-(6,7-dihydro-4H-pyrano[4,3-d]thiazol-2-yl)-5-(N,N-dimethylsulfamoyl)nicotinamide]
Emax: 43% | AC50: 17300 nM

CCc1cnc(NC(=O)c2cc(S(=O)(=O)N(C)C)cnc2N(C)C2CCCC2)s1 [Example 25, 2-(cyclopentyl(methyl)amino)-5-(N,N-dimethylsulfamoyl)-N-(5-ethylthiazol-2-yl)nicotinamide]
Emax: 108% | AC50: 309 nM
